Values joined by “and” are separate entries in the source; they are usually repeats but may differ in a detail not shown here. Identical values can stand only once. Like-named read-outs stand apart in the source and are kept apart here.

Test [1] addresses T1, mPTPB (Mycobacterium tuberculosis, UniProt I6WXK4).
T1 sequence (I6WXK4 1-276): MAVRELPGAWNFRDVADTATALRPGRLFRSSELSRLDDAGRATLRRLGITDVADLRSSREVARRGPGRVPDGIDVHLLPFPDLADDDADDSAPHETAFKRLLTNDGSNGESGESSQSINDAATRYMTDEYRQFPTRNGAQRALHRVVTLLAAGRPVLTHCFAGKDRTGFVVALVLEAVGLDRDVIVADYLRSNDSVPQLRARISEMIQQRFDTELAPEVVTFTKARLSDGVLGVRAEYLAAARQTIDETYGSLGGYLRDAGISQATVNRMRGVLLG
Briefly: biochemical.

The target of test [2] is PTPβ (Homo sapiens, UniProt P23467). Briefly: PTP inhibition assay (pNPP). The class given is biochemical.
PTPβ, sequence (P23467 23-1997): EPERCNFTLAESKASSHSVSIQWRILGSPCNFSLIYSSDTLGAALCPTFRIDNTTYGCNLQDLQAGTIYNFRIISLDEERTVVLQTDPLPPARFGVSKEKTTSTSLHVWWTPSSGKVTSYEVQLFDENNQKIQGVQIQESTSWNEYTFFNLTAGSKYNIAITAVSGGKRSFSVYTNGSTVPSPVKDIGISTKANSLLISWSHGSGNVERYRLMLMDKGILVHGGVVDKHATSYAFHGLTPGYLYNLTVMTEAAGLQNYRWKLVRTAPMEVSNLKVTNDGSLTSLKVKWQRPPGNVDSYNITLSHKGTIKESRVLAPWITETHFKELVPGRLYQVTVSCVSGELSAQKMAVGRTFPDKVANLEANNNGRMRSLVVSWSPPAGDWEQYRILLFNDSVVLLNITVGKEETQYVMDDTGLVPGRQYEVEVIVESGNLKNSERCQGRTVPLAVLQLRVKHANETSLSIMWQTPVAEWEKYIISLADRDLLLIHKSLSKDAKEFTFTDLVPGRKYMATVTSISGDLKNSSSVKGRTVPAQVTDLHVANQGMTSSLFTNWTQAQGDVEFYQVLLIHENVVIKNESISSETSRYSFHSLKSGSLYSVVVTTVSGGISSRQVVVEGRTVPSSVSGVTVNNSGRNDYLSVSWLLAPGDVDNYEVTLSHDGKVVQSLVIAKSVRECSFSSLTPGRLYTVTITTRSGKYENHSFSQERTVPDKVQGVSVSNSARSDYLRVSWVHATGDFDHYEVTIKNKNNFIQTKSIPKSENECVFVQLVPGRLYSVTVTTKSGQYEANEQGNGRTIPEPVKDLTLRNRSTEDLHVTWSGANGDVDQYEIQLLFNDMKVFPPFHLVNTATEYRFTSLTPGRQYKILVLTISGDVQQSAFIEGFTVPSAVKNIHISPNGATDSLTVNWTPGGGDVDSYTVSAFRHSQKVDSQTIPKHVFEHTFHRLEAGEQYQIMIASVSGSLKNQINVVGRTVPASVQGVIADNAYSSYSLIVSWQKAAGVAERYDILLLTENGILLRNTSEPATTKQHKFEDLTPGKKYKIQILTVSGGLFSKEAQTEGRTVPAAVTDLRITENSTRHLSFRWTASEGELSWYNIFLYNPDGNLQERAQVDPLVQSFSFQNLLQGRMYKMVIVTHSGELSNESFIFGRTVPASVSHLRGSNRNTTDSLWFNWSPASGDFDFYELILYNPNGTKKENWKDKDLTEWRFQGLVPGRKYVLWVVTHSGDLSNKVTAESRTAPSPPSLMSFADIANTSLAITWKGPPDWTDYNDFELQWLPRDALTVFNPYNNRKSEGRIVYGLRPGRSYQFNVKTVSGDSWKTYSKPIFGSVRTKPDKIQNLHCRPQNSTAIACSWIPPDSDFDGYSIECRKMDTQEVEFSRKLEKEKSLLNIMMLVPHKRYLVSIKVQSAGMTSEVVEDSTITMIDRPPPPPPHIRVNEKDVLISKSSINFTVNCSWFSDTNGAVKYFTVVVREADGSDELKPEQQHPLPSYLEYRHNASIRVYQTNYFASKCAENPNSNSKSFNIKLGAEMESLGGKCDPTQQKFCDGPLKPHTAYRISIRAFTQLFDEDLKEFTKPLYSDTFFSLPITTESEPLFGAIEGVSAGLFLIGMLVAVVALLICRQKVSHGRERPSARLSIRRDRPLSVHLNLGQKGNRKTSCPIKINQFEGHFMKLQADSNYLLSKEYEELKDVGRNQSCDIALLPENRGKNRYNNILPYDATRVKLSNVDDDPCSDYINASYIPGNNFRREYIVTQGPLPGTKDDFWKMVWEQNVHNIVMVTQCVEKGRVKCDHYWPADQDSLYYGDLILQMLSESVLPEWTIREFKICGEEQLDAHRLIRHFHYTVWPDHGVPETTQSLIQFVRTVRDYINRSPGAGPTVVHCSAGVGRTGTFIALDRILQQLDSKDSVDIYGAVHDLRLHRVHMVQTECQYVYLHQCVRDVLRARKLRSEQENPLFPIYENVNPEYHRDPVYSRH
For test [3], the target named is T2, CD45 (Homo sapiens, UniProt P08575).
T2 sequence (P08575 26-1306): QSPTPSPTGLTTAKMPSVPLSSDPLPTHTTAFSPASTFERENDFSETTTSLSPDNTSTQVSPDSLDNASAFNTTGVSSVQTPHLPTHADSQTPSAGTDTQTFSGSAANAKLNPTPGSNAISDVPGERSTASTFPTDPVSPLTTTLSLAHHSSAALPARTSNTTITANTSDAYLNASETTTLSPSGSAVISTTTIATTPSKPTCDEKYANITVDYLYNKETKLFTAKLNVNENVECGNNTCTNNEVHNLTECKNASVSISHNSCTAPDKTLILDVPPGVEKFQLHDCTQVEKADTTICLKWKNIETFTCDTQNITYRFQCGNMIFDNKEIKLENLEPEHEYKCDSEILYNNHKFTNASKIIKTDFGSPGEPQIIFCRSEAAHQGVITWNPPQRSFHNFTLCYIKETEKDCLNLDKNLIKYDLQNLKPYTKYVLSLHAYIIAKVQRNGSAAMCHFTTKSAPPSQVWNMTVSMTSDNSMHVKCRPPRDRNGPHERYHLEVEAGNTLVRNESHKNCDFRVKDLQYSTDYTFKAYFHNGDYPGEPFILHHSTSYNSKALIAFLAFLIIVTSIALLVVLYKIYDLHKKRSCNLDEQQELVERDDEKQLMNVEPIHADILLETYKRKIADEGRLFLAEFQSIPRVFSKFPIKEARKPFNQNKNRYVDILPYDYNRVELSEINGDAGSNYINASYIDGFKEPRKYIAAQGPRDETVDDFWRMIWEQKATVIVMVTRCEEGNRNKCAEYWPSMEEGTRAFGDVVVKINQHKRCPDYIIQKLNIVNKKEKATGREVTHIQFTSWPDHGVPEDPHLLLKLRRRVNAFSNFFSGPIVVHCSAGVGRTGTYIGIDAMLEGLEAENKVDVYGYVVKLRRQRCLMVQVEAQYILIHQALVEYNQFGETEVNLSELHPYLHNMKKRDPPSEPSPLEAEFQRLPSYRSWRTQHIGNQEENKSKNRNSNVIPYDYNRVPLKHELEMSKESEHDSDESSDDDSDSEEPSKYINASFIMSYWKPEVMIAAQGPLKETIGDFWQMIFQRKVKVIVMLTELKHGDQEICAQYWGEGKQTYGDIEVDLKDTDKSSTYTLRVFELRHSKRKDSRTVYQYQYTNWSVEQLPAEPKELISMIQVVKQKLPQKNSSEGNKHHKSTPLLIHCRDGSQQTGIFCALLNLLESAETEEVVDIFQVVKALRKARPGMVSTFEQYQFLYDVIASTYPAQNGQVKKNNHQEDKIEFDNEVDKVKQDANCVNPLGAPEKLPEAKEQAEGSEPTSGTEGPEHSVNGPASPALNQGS
Description: PTP inhibition assay (pNPP). The class given is biochemical. The settings on record: pNPP at Km, pH 7.0, 25° C.

Test [4] concerns the target FAP1 (Homo sapiens, UniProt Q12923). Description: PTP inhibition assay (pNPP). The class given is biochemical.
Test [5] addresses PTPσ (Homo sapiens, UniProt Q13332). Description: PTP inhibition assay (pNPP). Type of test: biochemical.
Test [6] addresses T3, Ssu72 (Homo sapiens, UniProt Q9NP77).
T3 sequence (Q9NP77 1-194): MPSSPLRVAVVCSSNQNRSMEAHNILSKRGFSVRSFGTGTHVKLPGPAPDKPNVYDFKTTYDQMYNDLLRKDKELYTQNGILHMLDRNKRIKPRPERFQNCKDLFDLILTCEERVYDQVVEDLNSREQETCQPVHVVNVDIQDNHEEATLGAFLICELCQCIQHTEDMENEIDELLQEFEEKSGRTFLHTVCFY
Description: PTP inhibition assay (pNPP). Type of test: biochemical.

The target in test [7] is T4, MKP3 (Homo sapiens, UniProt Q16828).
T4 sequence (Q16828 1-381): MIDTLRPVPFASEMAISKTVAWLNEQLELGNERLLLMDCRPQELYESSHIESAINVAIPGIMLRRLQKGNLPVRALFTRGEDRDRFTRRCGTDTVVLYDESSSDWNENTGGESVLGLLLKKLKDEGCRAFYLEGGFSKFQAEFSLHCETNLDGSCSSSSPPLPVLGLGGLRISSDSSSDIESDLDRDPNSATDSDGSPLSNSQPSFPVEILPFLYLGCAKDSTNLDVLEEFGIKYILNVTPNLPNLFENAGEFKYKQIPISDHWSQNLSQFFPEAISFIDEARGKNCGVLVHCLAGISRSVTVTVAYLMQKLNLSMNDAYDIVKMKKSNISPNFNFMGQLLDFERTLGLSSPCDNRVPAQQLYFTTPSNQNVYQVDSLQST
Briefly: PTP inhibition assay (pNPP). The class given is biochemical.

Setting [8] is: Biochemical potency against target (Ic50, nM) mPTPB.
[9] abbreviates: pNPP at Km, pH 7.0, 25° C., read-out: IC50 FAP1.
[10] abbreviates: pNPP at Km, pH 7.0, 25° C., read-out: IC50 Ssu72.

PTPσ, sequence (Q13332 30-1948): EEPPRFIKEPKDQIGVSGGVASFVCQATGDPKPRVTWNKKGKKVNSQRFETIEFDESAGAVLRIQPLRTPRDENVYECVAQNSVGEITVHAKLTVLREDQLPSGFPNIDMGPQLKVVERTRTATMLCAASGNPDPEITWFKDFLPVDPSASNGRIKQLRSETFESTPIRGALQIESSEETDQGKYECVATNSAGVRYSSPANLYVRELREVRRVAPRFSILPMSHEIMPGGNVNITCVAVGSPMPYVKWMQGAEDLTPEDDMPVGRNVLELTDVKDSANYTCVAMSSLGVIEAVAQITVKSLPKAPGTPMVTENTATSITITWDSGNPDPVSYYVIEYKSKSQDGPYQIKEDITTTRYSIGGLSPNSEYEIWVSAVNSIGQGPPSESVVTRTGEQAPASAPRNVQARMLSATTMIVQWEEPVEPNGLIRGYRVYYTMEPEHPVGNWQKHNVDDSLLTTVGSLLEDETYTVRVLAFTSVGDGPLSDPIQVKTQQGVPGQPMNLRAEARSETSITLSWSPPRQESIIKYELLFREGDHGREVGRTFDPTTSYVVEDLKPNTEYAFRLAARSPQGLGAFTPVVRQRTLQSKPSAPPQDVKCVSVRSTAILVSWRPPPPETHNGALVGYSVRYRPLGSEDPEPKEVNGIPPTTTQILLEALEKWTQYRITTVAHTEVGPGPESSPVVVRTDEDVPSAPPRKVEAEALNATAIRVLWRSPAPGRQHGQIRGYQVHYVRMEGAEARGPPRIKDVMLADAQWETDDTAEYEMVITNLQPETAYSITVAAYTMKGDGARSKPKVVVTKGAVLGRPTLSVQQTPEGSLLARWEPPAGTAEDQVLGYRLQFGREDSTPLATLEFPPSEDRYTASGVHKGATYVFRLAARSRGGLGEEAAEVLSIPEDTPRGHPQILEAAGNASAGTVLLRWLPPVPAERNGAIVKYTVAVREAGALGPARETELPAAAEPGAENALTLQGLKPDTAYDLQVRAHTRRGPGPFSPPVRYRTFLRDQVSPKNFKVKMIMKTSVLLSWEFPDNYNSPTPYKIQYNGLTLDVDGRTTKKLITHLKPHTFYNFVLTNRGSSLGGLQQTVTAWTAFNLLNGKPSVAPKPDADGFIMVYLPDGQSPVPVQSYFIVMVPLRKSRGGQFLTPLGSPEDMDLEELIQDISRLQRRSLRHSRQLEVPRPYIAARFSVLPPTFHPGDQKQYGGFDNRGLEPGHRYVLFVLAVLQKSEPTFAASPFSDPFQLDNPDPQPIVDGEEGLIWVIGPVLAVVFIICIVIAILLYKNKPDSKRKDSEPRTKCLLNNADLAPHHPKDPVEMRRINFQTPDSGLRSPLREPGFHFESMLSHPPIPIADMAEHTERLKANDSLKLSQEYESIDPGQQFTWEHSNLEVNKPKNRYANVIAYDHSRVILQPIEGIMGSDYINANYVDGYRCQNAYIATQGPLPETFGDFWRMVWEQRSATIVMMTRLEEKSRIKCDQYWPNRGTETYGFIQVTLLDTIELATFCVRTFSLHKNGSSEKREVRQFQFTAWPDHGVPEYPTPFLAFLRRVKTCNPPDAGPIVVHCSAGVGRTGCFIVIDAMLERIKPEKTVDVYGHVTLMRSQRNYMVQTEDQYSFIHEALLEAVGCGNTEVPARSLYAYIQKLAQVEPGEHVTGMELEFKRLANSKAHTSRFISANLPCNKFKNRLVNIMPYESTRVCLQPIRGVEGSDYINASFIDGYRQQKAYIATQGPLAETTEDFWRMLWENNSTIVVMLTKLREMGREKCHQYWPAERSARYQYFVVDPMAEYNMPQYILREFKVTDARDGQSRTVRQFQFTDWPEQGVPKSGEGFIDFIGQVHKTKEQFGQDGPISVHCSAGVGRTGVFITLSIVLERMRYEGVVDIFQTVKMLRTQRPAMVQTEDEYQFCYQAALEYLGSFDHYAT

As a reminder, the IC50 is the point on the concentration scale where inhibition reaches its midpoint. `Cc1c(Br)cc(NC(=O)CS(=O)(=O)O)cc1Br`: the IC50 in test [1] (setting [8]) was more than 3200 nM; in test [1] (IC50 mPTPB) it was 3100 nM; in test [2], more than 100 µM; in test [3] it was more than 100 µM.
For the compound `O=C(CS(=O)(=O)O)Nc1ccc2nc(C(F)(F)F)[nH]c2c1`, the IC50 in test [2], in test [3], in test [4] (setting [9]), in test [5] (read-out: IC50 PTPσ), in test [6] (setting [10]) and in test [7] was more than 100 µM throughout.
Take `O=C(CS(=O)(=O)O)Nc1cnc2ccccc2c1`: the IC50 in test [1] (IC50 mPTPB) was 55000 nM; in test [2], more than 100 µM; in test [3], more than 100 µM; in test [4] (setting [9]), more than 100 µM; in test [5] (read-out: IC50 PTPσ), more than 100 µM; in test [6] (setting [10]) it was more than 100 µM. In test [7], this compound came in with an IC50 of more than 100 µM.
For `O=C(NCCNC(=O)C(c1ccccc1)S(=O)(=O)O)c1cccc(C(=O)c2ccccc2)c1` (centres unmarked) [Compound L319-02-A60], the half-maximal inhibitory concentration (IC50) in test [4] (setting [9]) and in test [6] (setting [10]) was more than 200 µM throughout.
For `O=C(NCc1ccc(NC(=O)C(c2ccccc2)S(=O)(=O)O)cc1)c1ccccc1-c1ccc(C(F)(F)F)cc1` (centres unmarked) [Compound L319-05-A64], the IC50 was determined as 70 µM in test [4] (setting [9]) and 170 µM in test [6] (setting [10]).
Consider `CCCCc1ccc(NC(=O)C(=O)Nc2ccccc2NC(=O)C(c2ccccc2)S(=O)(=O)O)cc1` (centres unmarked) [Compound L319-21-M06], for which the half-inhibitory concentration (IC50) in test [4] (setting [9]) and in test [6] (setting [10]) was more than 50 µM each time.
For `O=C(Nc1cccc(OCc2ccccc2)c1)C(=O)Nc1ccccc1NC(=O)C(c1ccccc1)S(=O)(=O)O` (centres unmarked) [Compound L319-21-M52], the IC50 in test [4] (setting [9]) and in test [6] (setting [10]) was more than 50 µM in each case.
`Cc1c(Br)cc(NC(=O)C(c2ccccc2)S(=O)(=O)O)cc1Br` (centres unmarked) [Compound L319M34]: the IC50 was 50 to 200 nM and 55 nM in test [1] (IC50 mPTPB); more than 100 µM in test [4] (IC50 FAP1); more than 100 µM in test [6] (IC50 Ssu72).
As to `O=C(Nc1ccc(OCc2ccccc2)c(Cl)c1)C(c1ccccc1)S(=O)(=O)O` (centres unmarked) [Compound L319M50], the 50% inhibitory concentration (IC50) in test [4] (setting [9]) came to 73 µM; in test [6] (setting [10]) it was 66.6 µM.
Turning to `O=C(Nc1cccc(OCc2ccccc2)c1)C(c1ccccc1)S(=O)(=O)O` (centres unmarked) [Compound L319M52], the IC50 was 106 nM in test [1] (IC50 mPTPB); more than 200 µM in test [2]; more than 200 µM in test [3]; 88 µM in test [4] (setting [9]); more than 200 µM in test [5] (read-out: IC50 PTPσ); 97.6 µM in test [6] (setting [10]). Besides, the IC50 in test [7] is more than 200 µM.
With `O=C(Nc1ccc2nc(C(F)(F)F)[nH]c2c1)C(c1ccccc1)S(=O)(=O)O` (centres unmarked) [Compound L319M54], the IC50 in test [1] (IC50 mPTPB) was 78 nM; in test [2] it was more than 200 µM; in test [3] it was more than 200 µM; in test [4] (setting [9]), 180 µM and > 100 µM; in test [5], more than 200 µM; in test [6] (setting [10]) it was more than 200 µM. Also, the IC50 in test [7] was more than 200 µM.
As to `O=C(Nc1ccc(N2CCOCC2)cc1)C(c1ccccc1)S(=O)(=O)O` (centres unmarked) [Compound L319M68], the IC50 was 5000 nM in test [1] (IC50 mPTPB); more than 200 µM in test [2]; more than 200 µM in test [3]; more than 200 µM in test [4] (setting [9]); more than 200 µM in test [5]; more than 200 µM in test [6] (setting [10]). For the same compound, in test [7], the IC50 is more than 200 µM.
For the compound `O=C(Nc1cnc2ccccc2c1)C(c1ccccc1)S(=O)(=O)O` (centres unmarked) [Compound L319M88], the IC50 in test [1] (IC50 mPTPB) is 282 nM; in test [2] it was more than 200 µM; in test [3], more than 200 µM; in test [4] (setting [9]), more than 200 µM; in test [5] it was more than 200 µM; in test [6] (setting [10]) it was more than 200 µM. The compound further returned an IC50 in test [7] of more than 200 µM.
As for `O=C(Nc1ccc(-c2ccccc2)cc1)C(c1ccccc1)S(=O)(=O)O` (centres unmarked) [Compound L319N08], the half-inhibitory concentration (IC50) in test [4] (IC50 FAP1) was 71 µM; in test [6] (IC50 Ssu72), 72.9 µM.
With `O=C(Nc1nc2ccccc2s1)C(c1ccccc1)S(=O)(=O)O` (centres unmarked) [Compound L319N15], the IC50 in test [1] (IC50 mPTPB) was 116 nM; in test [2], more than 200 µM; in test [3], > 200 µM and 180 µM; in test [4] (setting [9]) it was 34 µM; in test [5], more than 200 µM; in test [6] (setting [10]), 69 µM. The compound further had an IC50 in test [7] of more than 200 µM.
Take `O=C(C(c1ccccc1)S(=O)(=O)O)N1CCC(Cc2ccccc2)CC1` (centres unmarked) [Compound L319N46]: the IC50 in test [1] (setting [8]) was 60 nM; in test [2], more than 200 µM; in test [3], more than 200 µM; in test [4] (setting [9]), more than 200 µM; in test [5] (read-out: IC50 PTPσ), more than 200 µM; in test [6] (setting [10]) it was more than 200 µM. For the same compound, the IC50 in test [7] was more than 200 µM.
In the case of `O=C(C(c1ccccc1)S(=O)(=O)O)N1CCC(c2ccc(Cl)c(Cl)c2)CC1` (centres unmarked) [Compound L319N47], the IC50 in test [1] (setting [8]) was 9 nM; in test [2] it was 50 µM; in test [3] it was 140 µM; in test [4] (setting [9]), 21 µM; in test [5] (read-out: IC50 PTPσ), more than 200 µM; in test [6] (setting [10]), more than 200 µM. The same compound gave a concentration for half-maximal inhibition (IC50) in test [7] of more than 200 µM.
Regarding `O=C(C(c1ccccc1)S(=O)(=O)O)N1CCCC2CCCCC21` (centres unmarked) [Compound L319N53], the IC50 in test [1] (setting [8]) was 20 nM; in test [2], more than 200 µM; in test [3], more than 200 µM; in test [4] (setting [9]) it was 76 µM; in test [5] (read-out: IC50 PTPσ), more than 200 µM; in test [6] (setting [10]), more than 200 µM. Also, in test [7], the 50% inhibitory concentration (IC50) is more than 200 µM.
As for `O=C(CS(=O)(=O)O)Nc1nc2ccc([N+](=O)[O-])cc2s1` [Compound L335N15-07], the half-inhibitory concentration (IC50) in test [2], in test [3], in test [4] (setting [9]), in test [5] (read-out: IC50 PTPσ), in test [6] (setting [10]) and in test [7] was more than 100 µM in each case.
As to `O=C(CS(=O)(=O)O)Nc1nc2ccccc2s1` [Compound L335N15], the half-inhibitory concentration (IC50) in test [1] (IC50 mPTPB) was 9500 nM; in test [2], more than 100 µM; in test [3] it was more than 100 µM; in test [4] (setting [9]), more than 100 µM; in test [5] (read-out: IC50 PTPσ), more than 100 µM; in test [6] (setting [10]), more than 100 µM. This compound came in with an IC50 in test [7] of more than 100 µM.
